Data published in patent publication US10179767B2 (GENENTECH, INC., priority 2015, dated 2019).

Biological target: T1, hNav1.7 (Homo sapiens, UniProt Q15858)
T1 construct: expressed in transfected cells
Test: Tritiated sulfonamide binding to membranes from cells expressing hNav1.7 and the β1 subunit (Nav 1.7 ligand binding assay, competitive)
Details: competition with 100 pM [3H]compound, room temperature, 18 h
Method: Tritiated Sulfonamide Binding to Membranes Isolated from Cells that Heterologously Express hNav1.7 and the β1 Subunit
Preparation of membranes containing recombinantly expressed sodium channels: Frozen recombinant cell pellets were thawed on ice and diluted to 4 times the cell pellet weight with ice cold 50 mM Tris HCl, pH 7.4 buffer. The cell suspensions were homogenized on ice using a motorized glass dounce homogeniser. Homogenates were further diluted 8.4 times with ice cold 50 mM Tris HCl, pH 7.4 buffer and then centrifuged at 200×g at 4° C. for 15 min. The supernatants were collected and centrifuged at 10000×g at 4° C. for 50 min. The pellets were then re-suspended in 100 mM NaCl, 20 mM Tris HCl, pH 7.4 buffer containing 1% v/v protease inhibitors (Calbiochem) and re-homogenized on ice. The homogenized membranes were then processed through a syringe equipped with a 26 gauge needle. Protein concentrations were determined by Bradford Assay and the membranes were stored at −80° C.
Radioligand Binding Studies:
Saturation experiments. A competitive NaV1.7 inhibitor having a methyl group was tritiated. Three tritiums were incorporated in place of methyl hydrogens to generate [^3H]compound. Binding of this radioligand was preformed in 5 mL borosilicate glass test tubes at room temperature. Binding was initiated by adding membranes to increasing concentrations of [^3H]compound in 100 mM NaCl, 20 mM Tris HCl, pH 7.4 buffer containing 0.01% w/v bovine serum albumin (BSA) for 18 h. Non-specific binding was determined in the presence of 1 μM unlabelled compound. After 18 h, the reactants were filtered through GF/C glass fiber filters presoaked in 0.5% w/v polyethylene imine Filters were washed with 15 mL ice cold 100 mM NaCl, 20 mM Tris HCl, pH7.4 buffer containing 0.25% BSA to separate bound from free ligand. [^3H]compound bound to filters was quantified by liquid scintillation counting.
Competitive Binding Experiments:
Binding reactions were preformed in 96-well polypropylene plates at room temperature for 18 h. In 360 μL, membranes were incubated with 100 pM [^3H]compound and increasing concentrations of Test Compound. Non-specific binding was defined in the presence of 1 μM unlabelled compound. Reactions were transferred and filtered through 96-well glass fiber/C filter plates presoaked with 0.5% polyethylene imine. The filtered reactions were washed 5 times with 200 μL ice cold buffer containing 0.25% BSA. Bound radioactivity was determined by liquid scintillation counting. Data Analysis: For saturation experiments, non-specific binding was subtracted from total binding to provide specific binding and these values were recalculated in terms of pmol ligand bound per mg protein. Saturation curves were constructed and dissociation constants were calculated using the single site ligand binding model: Beq=(Bmax*X)/(X+Kd), where Beq is the amount of ligand bound at equilibrium, Bmax is the maximum receptor density, Kd is the dissociation constant for the ligand, and X is the free ligand concentration. For competition studies percent inhibition was determined and IC50 values were calculated using a 4 parameter logistic model (% inhibition=(A+((B−A)/(1+((x/C)⨣D)))) using XLfit, where A and B are the maximal and minimum inhibition respectively, C is the IC50 concentration and D is the (Hill) slope.

T1 sequence (Q15858 whole entry): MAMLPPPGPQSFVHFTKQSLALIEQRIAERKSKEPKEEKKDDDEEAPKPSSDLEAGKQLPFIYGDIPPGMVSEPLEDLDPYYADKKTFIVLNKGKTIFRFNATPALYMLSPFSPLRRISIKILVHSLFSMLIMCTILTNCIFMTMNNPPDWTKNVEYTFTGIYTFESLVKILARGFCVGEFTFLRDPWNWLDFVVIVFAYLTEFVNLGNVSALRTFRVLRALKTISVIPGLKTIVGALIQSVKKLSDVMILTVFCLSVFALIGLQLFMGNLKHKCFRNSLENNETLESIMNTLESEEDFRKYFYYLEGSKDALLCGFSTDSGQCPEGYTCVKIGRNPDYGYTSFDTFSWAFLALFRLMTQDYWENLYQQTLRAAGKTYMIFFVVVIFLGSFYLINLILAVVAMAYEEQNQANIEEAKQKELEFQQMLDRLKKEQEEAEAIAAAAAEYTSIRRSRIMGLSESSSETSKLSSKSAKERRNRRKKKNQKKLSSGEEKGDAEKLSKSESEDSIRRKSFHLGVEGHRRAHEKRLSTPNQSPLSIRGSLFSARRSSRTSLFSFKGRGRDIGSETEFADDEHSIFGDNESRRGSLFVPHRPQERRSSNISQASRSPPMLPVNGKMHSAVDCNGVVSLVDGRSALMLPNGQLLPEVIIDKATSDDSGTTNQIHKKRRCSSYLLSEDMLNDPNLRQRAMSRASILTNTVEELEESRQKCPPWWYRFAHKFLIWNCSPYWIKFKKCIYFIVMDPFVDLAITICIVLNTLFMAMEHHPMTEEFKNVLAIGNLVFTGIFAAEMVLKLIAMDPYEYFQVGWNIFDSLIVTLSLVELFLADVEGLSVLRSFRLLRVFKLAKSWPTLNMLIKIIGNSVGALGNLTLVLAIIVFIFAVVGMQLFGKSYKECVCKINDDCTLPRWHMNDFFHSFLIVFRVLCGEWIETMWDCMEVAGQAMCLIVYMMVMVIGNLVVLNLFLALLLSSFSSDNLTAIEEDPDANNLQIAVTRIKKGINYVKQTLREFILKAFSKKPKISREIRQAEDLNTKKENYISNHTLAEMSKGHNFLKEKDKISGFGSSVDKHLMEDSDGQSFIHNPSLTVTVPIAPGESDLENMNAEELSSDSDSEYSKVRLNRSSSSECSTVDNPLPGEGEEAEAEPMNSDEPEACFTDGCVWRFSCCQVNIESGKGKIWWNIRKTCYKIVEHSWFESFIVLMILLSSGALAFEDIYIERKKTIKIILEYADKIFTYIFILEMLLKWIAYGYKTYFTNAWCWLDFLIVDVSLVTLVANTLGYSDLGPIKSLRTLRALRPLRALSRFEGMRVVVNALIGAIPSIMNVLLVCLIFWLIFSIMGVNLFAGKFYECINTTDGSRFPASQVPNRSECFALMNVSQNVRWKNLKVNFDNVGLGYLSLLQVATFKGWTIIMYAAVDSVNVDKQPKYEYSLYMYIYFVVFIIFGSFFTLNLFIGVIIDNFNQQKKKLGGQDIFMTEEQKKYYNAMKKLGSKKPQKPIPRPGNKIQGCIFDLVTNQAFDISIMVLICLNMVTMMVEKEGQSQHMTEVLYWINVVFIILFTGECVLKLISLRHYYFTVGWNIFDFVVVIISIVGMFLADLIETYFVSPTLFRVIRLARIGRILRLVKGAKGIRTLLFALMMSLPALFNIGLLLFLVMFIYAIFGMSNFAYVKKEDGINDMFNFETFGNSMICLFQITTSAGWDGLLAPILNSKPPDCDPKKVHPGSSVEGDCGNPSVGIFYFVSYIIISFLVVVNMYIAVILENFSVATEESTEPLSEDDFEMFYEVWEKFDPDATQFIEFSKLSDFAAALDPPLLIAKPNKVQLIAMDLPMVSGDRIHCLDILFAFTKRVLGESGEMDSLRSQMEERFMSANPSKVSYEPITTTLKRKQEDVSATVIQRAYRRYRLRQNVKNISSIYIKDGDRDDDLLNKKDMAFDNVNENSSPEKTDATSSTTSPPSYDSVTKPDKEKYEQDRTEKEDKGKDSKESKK
T1 sequence (Q07699 19-218 partner): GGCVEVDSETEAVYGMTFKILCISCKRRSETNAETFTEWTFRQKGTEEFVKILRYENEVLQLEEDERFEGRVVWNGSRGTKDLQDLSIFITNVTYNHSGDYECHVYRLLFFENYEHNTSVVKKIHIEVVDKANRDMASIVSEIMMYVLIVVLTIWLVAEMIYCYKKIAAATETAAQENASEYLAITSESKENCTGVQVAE

| Structure (SMILES) | IC50 [nM] |
| --- | --- |
| CCS(=O)(=O)NC(=O)c1cc(C2CC2)c(OCC2CCN([C@H](C)c3cc(Cl)cc(Cl)c3F)CC2)cc1F (single isomer, unassigned) [Example 33] | 2.4 |
| C[C@@H](c1cc(Cl)cc(Cl)c1C#N)N1CCC(COc2cc(F)c(C(=O)NS(C)(=O)=O)cc2C2CC2)CC1 (single isomer, unassigned) [Example 2] | 5.5 |
| CS(=O)(=O)NC(=O)c1cc(C2CC2)c(OCC2(F)CCN(Cc3cc(C(F)(F)F)cc(C4CC4)n3)CC2)cc1F [Example 43, 5-cyclopropyl-4-((1-((6-cyclopropyl-4-(trifluoromethyl)pyridin-2-yl)methyl)-4-fluoropiperidin-4-yl)methoxy)-2-fluoro-N-(methylsulfonyl)benzamide] | 9.8 |
| CS(=O)(=O)NC(=O)c1ccc(OCC2CCN(Cc3cc(C(F)(F)F)ccc3Cl)CC2)c(C2CC2)c1 [Example 60, 4-((1-(2-chloro-5-(trifluoromethyl)benzyl)piperidin-4-yl)methoxy)-3-cyclopropyl-N-(methylsulfonyl)benzamide] | 8.1 |
| CS(=O)(=O)NC(=O)c1cc(C2CC2)c(OCC2(F)CCN(Cc3cc(C(F)(F)F)ccc3Cl)CC2)cc1F [Example 63, 4-((1-(2-chloro-5-(trifluoromethyl)benzyl)-4-fluoropiperidin-4-yl)methoxy)-5-cyclopropyl-2-fluoro-N-(methylsulfonyl)benzamide] | 7 |
| CC(c1cc(C(F)(F)F)cc(C2CC2)n1)N1CCC(COc2cc(F)c(C(=O)NS(C)(=O)=O)cc2C2CC2)CC1 (stereo not drawn) [Example 50, 5-cyclopropyl-4-((1-(1-(6-cyclopropyl-4-(trifluoromethyl)pyridin-2-yl)ethyl)piperidin-4-yl)methoxy)-2-fluoro-N-(methylsulfonyl)benzamide] | 9.1 |
| O=C(NS(=O)(=O)C1CC1)c1cc(C2CC2)c(OCC2(F)CCN(c3cc(C(F)(F)F)c(Cl)cn3)CC2)cc1F [Example 59, 4-((1-(5-chloro-4-(trifluoromethyl)pyridin-2-yl)-4-fluoropiperidin-4-yl)methoxy)-5-cyclopropyl-N-(cyclopropylsulfonyl)-2-fluorobenzamide] | 9.3 |
| CS(=O)(=O)NC(=O)c1ccc(OCC2CCN(Cc3cc(C(F)(F)F)cc(Cl)c3F)CC2)c(C2CC2)c1 [Example 62, 4-((1-(3-chloro-2-fluoro-5-(trifluoromethyl)benzyl)piperidin-4-yl)methoxy)-3-cyclopropyl-N-(methylsulfonyl)benzamide] | 9.8 |
| CS(=O)(=O)NC(=O)c1cc(C2CC2)c(OCC2(F)CCN(Cc3ncc(C(F)(F)F)cc3Cl)CC2)cc1F [Example 42, 4-((1-((3-chloro-5-(trifluoromethyl)pyridin-2-yl)methyl)-4-fluoropiperidin-4-yl)methoxy)-5-cyclopropyl-2-fluoro-N-(methylsulfonyl)benzamide] | 19 |
| CS(=O)(=O)NC(=O)c1cc(C2CC2)c(OCC2CCN([C@@H](c3cc(Cl)cc(Cl)c3)C3COC3)CC2)cc1F (single isomer, unassigned) [Example 35] | 8.2 |
| C[C@H](c1ccc(F)cc1Cl)N1CCC(F)(COc2cc(F)c(C(=O)NS(C)(=O)=O)cc2C2CC2)CC1 (single isomer, unassigned) [Example 19] | 6 |
| CS(=O)(=O)NC(=O)c1cc(C2CC2)c(OCC2CCN(Cc3cc(Cl)cc(C(F)(F)F)n3)CC2)cc1F [Example 53, 4-((1-((4-chloro-6-(trifluoromethyl)pyridin-2-yl)methyl)piperidin-4-yl)methoxy)-5-cyclopropyl-2-fluoro-N-(methylsulfonyl)benzamide] | 9.4 |
| C[C@@H](c1cc(F)cc(Cl)c1)N1CCC(F)(COc2cc(F)c(C(=O)NS(C)(=O)=O)cc2C2CC2)CC1 (single isomer, unassigned) [Example 24] | 4.1 |
| CS(=O)(=O)NC(=O)c1cc(C2CC2)c(OCC2(F)CCN(Cc3ccc(Cl)cc3Cl)CC2)cc1F [Example 20, 5-Cyclopropyl-4-((1-(2,4-dichlorobenzyl)-4-fluoropiperidin-4-yl)methoxy)-2-fluoro-N-(methylsulfonyl)benzamide] | 3.5 |
| N#Cc1c(Cl)cc(Cl)cc1CN1CCC(COc2cc(F)c(C(=O)NS(=O)(=O)C3CC3)cc2C2CC2)CC1 [Example 17, 5-Cyclopropyl-N-(cyclopropylsulfonyl)-4-((1-(3,5-dichloro-2-cyanobenzyl)piperidin-4-yl)methoxy)-2-fluorobenzamide] | 5.9 |
| C[C@@H](c1ccc(Cl)c(Cl)c1)N1CCC(F)(COc2cc(F)c(C(=O)NS(C)(=O)=O)cc2C2CC2)CC1 (single isomer, unassigned) [Example 22] | 5.6 |
| CCS(=O)(=O)NC(=O)c1cc(C2CC2)c(OCC2(OC)CCN(Cc3cc(Cl)cc(Cl)c3)CC2)cc1F [Example 10, 5-Cyclopropyl-4-((1-(3,5-dichlorobenzyl)-4-methoxypiperidin-4-yl)methoxy)-N-(ethylsulfonyl)-2-fluorobenzamide] | 9 |
| CS(=O)(=O)NC(=O)c1cc(C2CC2)c(OCC2(F)CCN(Cc3cc(F)cc(Cl)c3)CC2)cc1F [Example 30, 4-((1-(3-Chloro-5-fluorobenzyl)-4-fluoropiperidin-4-yl)methoxy)-5-cyclopropyl-2-fluoro-N-(methylsulfonyl)benzamide] | 4.9 |
